Measured values reported in ChEMBL document CHEMBL1201862, “PubChem BioAssay data set” (2004).
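Dose response: 5 concentrations. Exposure: 48 h. Format: 96-well plates. Endpoint: linear interpolation; highest concentration if not reached. GI50 marks 50% less growth.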 The source made the active and inactive calls. Rule as the data show it: active = GI50 up to about 1.1 µM and inactive = higher.

Experiments:
Assay in all cases: growth of human tumour cells (NCI), 48 h
786-0 = test system: 786-0
ACHN = test system: ACHN
DU-145 = test system: DU-145
HL-60 = test system: HL-60
HOP-62 = test system: HOP-62
KM12 = test system: KM12
M14 = test system: M14
MDA-N = test system: MDA-N
NCI-H226 = test system: NCI-H226
OVCAR-3 = test system: OVCAR-3
OVCAR-5 = test system: OVCAR-5
OVCAR-8 = test system: OVCAR-8
RPMI-8226 = test system: RPMI-8226
SK-MEL-28 = test system: SK-MEL-28
SK-MEL-2 = test system: SK-MEL-2
SK-MEL-5 = test system: SK-MEL-5
SR = test system: SR
TK-10 = test system: TK-10
U-251 = test system: U-251
UO-31 = test system: UO-31

Row | SMILES | GI50 (786-0) | GI50 (ACHN) | GI50 (DU-145) | GI50 (HL-60) | GI50 (HOP-62) | GI50 (KM12) | GI50 (M14) | GI50 (MDA-N) | GI50 (NCI-H226) | GI50 (OVCAR-3) | GI50 (OVCAR-5) | GI50 (OVCAR-8) | GI50 (RPMI-8226) | GI50 (SK-MEL-28) | GI50 (SK-MEL-2) | GI50 (SK-MEL-5) | GI50 (SR) | GI50 (TK-10) | GI50 (U-251) | GI50 (UO-31)
1 | COc1ccc(C(O)c2nccn2C)c(OC)c1 (stereo not given) | > 100 µM (inactive) | > 100 µM (inactive) | > 100 µM (inactive) | > 100 µM (inactive) | > 100 µM (inactive) | > 100 µM (inactive) | > 100 µM (inactive) | > 100 µM (inactive) | > 100 µM (inactive) | > 100 µM (inactive) | > 100 µM (inactive) | > 100 µM (inactive) | > 100 µM (inactive) | > 100 µM (inactive) | > 100 µM (inactive) | 86.3 µM (inactive) | > 100 µM (inactive) | > 100 µM (inactive) | > 100 µM (inactive) | > 100 µM (inactive)
2 | N#Cc1c(N2CCCC2)nsc1NCc1ccccc1 | > 100 µM (inactive) | 91 µM (inactive) | > 100 µM (inactive) | > 100 µM (inactive) | > 100 µM (inactive) | > 100 µM (inactive) | > 100 µM (inactive) | > 100 µM (inactive) | > 100 µM (inactive) | > 100 µM (inactive) | > 100 µM (inactive) | > 100 µM (inactive) | > 100 µM (inactive) | > 100 µM (inactive) | > 100 µM (inactive) | > 100 µM (inactive) | > 100 µM (inactive) | > 100 µM (inactive) | > 100 µM (inactive) | 4.14 µM (inactive)
3 | [O-]c1c2cc(-[n+]3c(-c4ccccc4)cc(-c4ccccc4)cc3-c3ccccc3)cc1CO[C@@H](c1ccccc1)[C@H](c1ccccc1)OCCOCCO[C@@H](c1ccccc1)[C@H](c1ccccc1)OC2 | 0.0448 µM (active) | 0.167 µM (active) | 0.284 µM (active) | 0.0204 µM (active) | 0.129 µM (active) | 0.0444 µM (active) | 0.0687 µM (active) | 0.0426 µM (active) | 0.0885 µM (active) | 0.0324 µM (active) | 0.453 µM (active) | 0.0351 µM (active) | 0.0176 µM (active) | 0.475 µM (active) | 0.0394 µM (active) | 0.03 µM (active) | 0.0309 µM (active) | 0.24 µM (active) | 0.0297 µM (active) | 0.379 µM (active)
4 | O=C(/C=C/c1cc(O)c(O)cc1O)OCCc1ccccc1 | 5.05 µM (inactive) | 12.2 µM (inactive) | > 52.6 µM (inactive) | 1.3 µM (inactive) | 31.1 µM (inactive) | 62.4 µM (inactive) | 14.9 µM (inactive) | 13.2 µM (inactive) | 35.6 µM (inactive) | 10.3 µM (inactive) | > 41.9 µM (inactive) | 9.57 µM (inactive) | 3.56 µM (inactive) | 21 µM (inactive) | 20.8 µM (inactive) | 18.7 µM (inactive) | 5.53 µM (inactive) | 6.11 µM (inactive) | 27.7 µM (inactive) | 10.3 µM (inactive)
5 | CCOP(=O)(O)C(Nc1ccc(/N=N/c2ccccc2)cc1)c1cccc(C(Nc2ccc(/N=N/c3ccccc3)cc2)P(=O)(O)OCC)c1 (stereo not given) | 60 µM (inactive) | 45.9 µM (inactive) | 80.9 µM (inactive) | 22.1 µM (inactive) | 25.3 µM (inactive) | 32.6 µM (inactive) | 40.6 µM (inactive) | 60.5 µM (inactive) | > 100 µM (inactive) | 55.3 µM (inactive) | 40.6 µM (inactive) | 55 µM (inactive) | 23.2 µM (inactive) | 32.3 µM (inactive) | 45.2 µM (inactive) | 45.1 µM (inactive) | 31.3 µM (inactive) | > 100 µM (inactive) | 31.2 µM (inactive) | 30 µM (inactive)
6 | CCOC(=O)c1ccc(/N=c2\oc3ccc(OC)cc3cc2-c2nc3ccccc3[nH]2)cc1 | > 100 µM (inactive) | > 100 µM (inactive) | > 100 µM (inactive) | > 100 µM (inactive) | 54.6 µM (inactive) | > 100 µM (inactive) | 65.3 µM (inactive) | 55 µM (inactive) | 0.516 µM (active) | > 100 µM (inactive) | 54.3 µM (inactive) | 4.21 µM (inactive) | > 100 µM (inactive) | > 100 µM (inactive) | > 100 µM (inactive) | 5.66 µM (inactive) | 59.3 µM (inactive) | > 100 µM (inactive) | 31.4 µM (inactive) | > 100 µM (inactive)
7 | CC(C)(C)c1cc[n+](C[n+]2ccc(C(C)(C)C)cc2)cc1 | > 100 µM (inactive) | > 100 µM (inactive) | > 100 µM (inactive) | > 100 µM (inactive) | > 100 µM (inactive) | > 100 µM (inactive) | > 100 µM (inactive) | > 100 µM (inactive) | > 100 µM (inactive) | > 100 µM (inactive) | > 100 µM (inactive) | > 100 µM (inactive) | > 100 µM (inactive) | > 100 µM (inactive) | > 100 µM (inactive) | > 100 µM (inactive) | > 100 µM (inactive) | > 100 µM (inactive) | > 100 µM (inactive) | > 100 µM (inactive)
8 | CN(C)Cc1ccc(-c2cc3onc(-c4ccccc4)c3c(=O)n2C)cc1 | 17.3 µM (inactive) | 67.5 µM (inactive) | 28.8 µM (inactive) | 0.711 µM (active) | 20.7 µM (inactive) | 19.5 µM (inactive) | 15.1 µM (inactive) | 17.6 µM (inactive) | > 100 µM (inactive) | 37.4 µM (inactive) | 40.6 µM (inactive) | 47.5 µM (inactive) | 19.4 µM (inactive) | 18.9 µM (inactive) | 27.5 µM (inactive) | 17.9 µM (inactive) | 11.7 µM (inactive) | 24.1 µM (inactive) | 22 µM (inactive) | 11.6 µM (inactive)
9 | COC(CC1(CCNc2ccccc2)C(=O)N(COCC[Si](C)(C)C)c2ccccc21)OC (stereo not given) | 6.25 µM (inactive) | 17.9 µM (inactive) | 23.6 µM (inactive) | 4.35 µM (inactive) | 13.7 µM (inactive) | 8.85 µM (inactive) | 2.51 µM (inactive) | 24 µM (inactive) | 6 µM (inactive) | 15.6 µM (inactive) | 16.6 µM (inactive) | 18.4 µM (inactive) | 7.23 µM (inactive) | 6.98 µM (inactive) | 15.3 µM (inactive) | 4.97 µM (inactive) | > 32.8 µM (inactive) | 14.8 µM (inactive) | 18.2 µM (inactive) | 13.9 µM (inactive)
10 | Nc1ccc(S2(c3ccc(N)cc3)C=C(c3ccccc3)C(c3ccccc3)=C2)cc1 | 24 µM (inactive) | > 28.6 µM (inactive) | > 38.4 µM (inactive) | > 100 µM (inactive) | 70.8 µM (inactive) | > 54.7 µM (inactive) | > 72.8 µM (inactive) | > 30.2 µM (inactive) | > 21.8 µM (inactive) | > 100 µM (inactive) | > 65.6 µM (inactive) | > 26.4 µM (inactive) | > 64 µM (inactive) | > 31.1 µM (inactive) | > 26.6 µM (inactive) | > 100 µM (inactive) | > 45.5 µM (inactive) | > 27.9 µM (inactive) | > 25 µM (inactive) | > 40.6 µM (inactive)
11 | CC(NC(=O)c1ccc(OP(=O)(OCc2ccc([N+](=O)[O-])o2)N(C)CCCCCl)cc1)c1ccc(OCC2CCCCC2)c(C(N)=O)c1 (stereo not given) | 4.32 µM (inactive) | 3.93 µM (inactive) | 4.27 µM (inactive) | 3.33 µM (inactive) | 7.05 µM (inactive) | 3.36 µM (inactive) | 3.67 µM (inactive) | 2.97 µM (inactive) | 3.98 µM (inactive) | 2.57 µM (inactive) | 15.2 µM (inactive) | 4.49 µM (inactive) | 1.03 µM (active) | 2.3 µM (inactive) | 3.05 µM (inactive) | 1.66 µM (inactive) | 1.73 µM (inactive) | 6.43 µM (inactive) | 4.29 µM (inactive) | 1.83 µM (inactive)
12 | CCCn1c(=O)c2nn3c(=O)n(CCC)c(=O)c3nn2c1=O | > 100 µM (inactive) | > 100 µM (inactive) | > 100 µM (inactive) | > 100 µM (inactive) | > 100 µM (inactive) | > 100 µM (inactive) | > 100 µM (inactive) | > 100 µM (inactive) | > 100 µM (inactive) | > 100 µM (inactive) | > 100 µM (inactive) | > 100 µM (inactive) | > 100 µM (inactive) | > 100 µM (inactive) | > 100 µM (inactive) | > 100 µM (inactive) | > 100 µM (inactive) | > 100 µM (inactive) | > 100 µM (inactive) | > 100 µM (inactive)
13 | CC(=O)c1cccc(Nc2c3ccccc3nc3occc23)c1 | 4.08 µM (inactive) | 9.73 µM (inactive) | 11 µM (inactive) | 3.48 µM (inactive) | 3.61 µM (inactive) | 4.73 µM (inactive) | 4.3 µM (inactive) | 2.58 µM (inactive) | 10.8 µM (inactive) | 1.82 µM (inactive) | 37.2 µM (inactive) | 15.3 µM (inactive) | 3.34 µM (inactive) | 2.67 µM (inactive) | 2.74 µM (inactive) | 8.75 µM (inactive) | 0.705 µM (active) | 16.2 µM (inactive) | 5.16 µM (inactive) | 12.5 µM (inactive)
14 | O=[N+]([O-])c1cc2no[n+]([O-])c2cc1N1CCCCC1 | 1.29 µM (inactive) | 2.58 µM (inactive) | 2.45 µM (inactive) | 1.5 µM (inactive) | 4.34 µM (inactive) | 13.4 µM (inactive) | 2.62 µM (inactive) | 2.59 µM (inactive) | 39.8 µM (inactive) | 1.92 µM (inactive) | 8.39 µM (inactive) | 1.95 µM (inactive) | 1.28 µM (inactive) | 7.28 µM (inactive) | 7.05 µM (inactive) | 15.3 µM (inactive) | 2.94 µM (inactive) | 3.33 µM (inactive) | 3.93 µM (inactive) | 2.07 µM (inactive)
